Test results: patent EP4722207A1, “OXOISOINDOLINYL-SUBSTITUTED TETRAHYDROPYRIMIDINEDIONE DERIVATIVE AND USE THEREOF” (Gluetacs Therapeutics (Shanghai) Co., Ltd., priority 2023, dated 2024)

Assays:
Assay type in all cases: cell-based
Details in all cases: compounds at 50 nM and 500 nM, 24 hours
WEE1 = molecular target: T1, WEE1 (Homo sapiens, UniProt P30291+Q96SW2); assay: Western-blot assay, substrate protein degradation in hPBMCs: WEE1
T1 construct: effects of the compounds of the present disclosure on the expression of target proteins in cells; endogenous in cells; host or cells: human PBMCs (hPBMCs)
T1 sequence (P30291 whole entry): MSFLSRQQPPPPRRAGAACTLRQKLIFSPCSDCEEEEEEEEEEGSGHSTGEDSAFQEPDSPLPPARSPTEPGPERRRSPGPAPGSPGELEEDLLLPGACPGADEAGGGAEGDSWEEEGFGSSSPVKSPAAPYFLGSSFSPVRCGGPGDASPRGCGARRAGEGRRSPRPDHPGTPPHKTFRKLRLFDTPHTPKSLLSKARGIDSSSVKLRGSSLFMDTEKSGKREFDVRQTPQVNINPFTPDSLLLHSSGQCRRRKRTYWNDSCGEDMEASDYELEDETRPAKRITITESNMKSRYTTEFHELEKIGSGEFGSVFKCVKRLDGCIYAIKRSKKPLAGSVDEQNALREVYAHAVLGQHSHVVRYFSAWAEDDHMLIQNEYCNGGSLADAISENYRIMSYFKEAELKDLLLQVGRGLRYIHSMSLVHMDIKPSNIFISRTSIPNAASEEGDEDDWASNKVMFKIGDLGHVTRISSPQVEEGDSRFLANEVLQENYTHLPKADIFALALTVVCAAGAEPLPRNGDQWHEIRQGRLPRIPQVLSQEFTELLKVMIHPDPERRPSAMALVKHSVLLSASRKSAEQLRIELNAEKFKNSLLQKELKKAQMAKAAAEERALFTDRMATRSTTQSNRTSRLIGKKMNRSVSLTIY
T1 sequence (Q96SW2 whole entry): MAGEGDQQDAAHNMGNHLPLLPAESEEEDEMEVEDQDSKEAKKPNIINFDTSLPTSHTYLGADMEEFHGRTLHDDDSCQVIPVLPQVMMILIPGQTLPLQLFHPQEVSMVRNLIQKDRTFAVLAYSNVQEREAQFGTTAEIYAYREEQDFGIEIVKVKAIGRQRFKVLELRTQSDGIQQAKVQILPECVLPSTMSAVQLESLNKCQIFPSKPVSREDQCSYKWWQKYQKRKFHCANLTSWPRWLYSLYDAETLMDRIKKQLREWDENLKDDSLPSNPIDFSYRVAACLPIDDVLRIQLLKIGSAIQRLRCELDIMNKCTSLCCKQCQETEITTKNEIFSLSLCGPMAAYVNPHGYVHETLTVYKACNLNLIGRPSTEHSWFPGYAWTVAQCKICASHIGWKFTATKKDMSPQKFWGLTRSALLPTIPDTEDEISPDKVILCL
T1 sequence (Q16531 whole entry partner): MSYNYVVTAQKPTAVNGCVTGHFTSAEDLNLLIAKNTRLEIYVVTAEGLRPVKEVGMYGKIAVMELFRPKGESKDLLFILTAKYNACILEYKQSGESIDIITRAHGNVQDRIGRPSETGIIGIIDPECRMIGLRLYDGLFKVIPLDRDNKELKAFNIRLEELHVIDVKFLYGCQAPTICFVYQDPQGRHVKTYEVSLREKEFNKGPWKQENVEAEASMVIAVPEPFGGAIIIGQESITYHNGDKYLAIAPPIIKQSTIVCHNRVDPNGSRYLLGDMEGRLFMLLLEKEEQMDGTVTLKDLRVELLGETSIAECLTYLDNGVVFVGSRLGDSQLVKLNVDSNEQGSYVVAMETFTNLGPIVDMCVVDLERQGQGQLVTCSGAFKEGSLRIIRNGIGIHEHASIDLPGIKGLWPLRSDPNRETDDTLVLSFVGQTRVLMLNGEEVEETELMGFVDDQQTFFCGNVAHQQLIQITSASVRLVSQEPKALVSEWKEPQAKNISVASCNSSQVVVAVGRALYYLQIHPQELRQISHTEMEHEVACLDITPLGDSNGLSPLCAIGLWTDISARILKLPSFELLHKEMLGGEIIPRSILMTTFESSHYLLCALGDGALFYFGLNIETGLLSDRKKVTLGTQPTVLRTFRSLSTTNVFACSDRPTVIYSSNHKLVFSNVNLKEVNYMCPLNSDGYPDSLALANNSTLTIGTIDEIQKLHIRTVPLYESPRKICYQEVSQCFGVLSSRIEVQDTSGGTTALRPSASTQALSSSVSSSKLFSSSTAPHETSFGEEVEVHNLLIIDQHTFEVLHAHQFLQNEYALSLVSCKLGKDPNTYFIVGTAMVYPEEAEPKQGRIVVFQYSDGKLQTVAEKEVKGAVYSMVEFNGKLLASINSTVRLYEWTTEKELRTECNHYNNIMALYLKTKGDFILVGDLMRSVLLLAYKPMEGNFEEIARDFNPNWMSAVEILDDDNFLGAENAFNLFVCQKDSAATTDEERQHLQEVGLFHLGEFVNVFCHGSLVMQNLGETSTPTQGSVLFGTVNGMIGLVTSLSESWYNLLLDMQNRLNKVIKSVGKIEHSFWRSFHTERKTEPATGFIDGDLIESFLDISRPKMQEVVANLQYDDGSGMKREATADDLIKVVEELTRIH
Description: (§1) Conventional Western blot assay was performed to evaluate the effects of the compounds of the present disclosure on the expression of target proteins in cells. • (1) Cell Seeding and Protein Harvesting: Human peripheral blood mononuclear cells (hPBMCs) at a density of 1x10^6 cells/mL were thawed according to the PBMC Recovery Protocol (Milecell Biotechnologies Inc, Shanghai). […] After 24 hours of compounds treatment, cells were harvested and lysed in RIPA protein lysate containing protease inhibitors on ice for 30 min, followed by centrifugation. The supernatant was aspirated as the extracted total cell protein. The protein concentration of the supernatant was determined using the conventional BCA (Bicinchoninic Acid) assay. • (2) To the collected supernatant, 5X SDS sample loading buffer was added, followed by denaturation at 95°C for 5 minutes. The denatured samples were then separated by SDS-PAGE electrophoresis on a polyacrylamide gel. Proteins were transferred to a nitrocellulose membrane (0.45 µm NC membrane), blocked with blocking buffer at room temperature for 1 hour, and subjected to antibody incubation and development procedures according to the antibody manufacturer's instructions (Cell Signaling Technology).
(§2) Half-Maximal Degradation Concentration value (the drug concentration required for degrading proteins by 50%, abbreviated as DC50) reads method: comparing the grayscale values of Western blot bands from drug-treated samples with those from blank DMSO-treated controls, and identifying the drug concentration range at which the grayscale value is half that of the DMSO-treated control bands.
(§3) DC50 values can be calculated using ImageJ software to measure grayscale values of Western blot bands from drug-treated samples. The concentration-response curve is fitted to estimate the drug concentration corresponding to half the grayscale value.
(§4) Target protein remaining (%) refers to the percentage of target protein remaining in cells after treatment with protein degrader compounds.
(§5) Calculation method for target protein remaining (%): Use ImageJ software to measure grayscale values of Western blot bands from drug (protein degrader)-treated samples. The grayscale value of drug-treated bands is divided by that of internal control protein bands, and the resulting quotient is normalized to obtain the relative percentage of remaining target protein after protein degrader treatment. Target protein degradation rate(%) = 1−target protein remaining(%). [formula]

IKZF1 = molecular target: T2, IKZF1 (Homo sapiens, UniProt Q13422+Q96SW2); assay: Western-blot assay, substrate protein degradation in hPBMCs: IKZF1
T2 construct: effects of the compounds of the present disclosure on the expression of target proteins in cells; endogenous in cells; host or cells: human PBMCs (hPBMCs)
T2 sequence (Q13422 whole entry): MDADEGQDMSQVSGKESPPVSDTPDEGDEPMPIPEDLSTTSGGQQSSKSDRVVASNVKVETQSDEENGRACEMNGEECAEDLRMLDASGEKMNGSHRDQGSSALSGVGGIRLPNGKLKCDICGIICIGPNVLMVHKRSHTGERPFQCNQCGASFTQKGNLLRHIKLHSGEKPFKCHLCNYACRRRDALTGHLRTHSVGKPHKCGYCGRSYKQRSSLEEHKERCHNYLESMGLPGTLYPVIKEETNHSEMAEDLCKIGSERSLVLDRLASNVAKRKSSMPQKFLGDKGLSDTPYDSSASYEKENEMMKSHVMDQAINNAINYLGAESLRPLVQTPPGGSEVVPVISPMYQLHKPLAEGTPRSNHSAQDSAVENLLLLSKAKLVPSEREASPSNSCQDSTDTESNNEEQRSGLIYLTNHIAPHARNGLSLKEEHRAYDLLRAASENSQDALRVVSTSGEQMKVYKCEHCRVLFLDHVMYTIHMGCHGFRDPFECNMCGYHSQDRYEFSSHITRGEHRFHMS
T2 sequence (Q96SW2 whole entry): as the sequence (Q96SW2 whole entry) above
T2 sequence (Q16531 whole entry partner): as the sequence (Q16531 whole entry partner) above
Description: as §1, §2, §3, §4, §5

IKZF2 = molecular target: T3, IKZF2 (Homo sapiens, UniProt Q96SW2+Q9UKS7); assay: Western-blot assay, substrate protein degradation in hPBMCs: IKZF2
T3 construct: effects of the compounds of the present disclosure on the expression of target proteins in cells; endogenous in cells; host or cells: human PBMCs (hPBMCs)
Description: as §1, §2, §3, §4, §5

IKZF3 = molecular target: T4, IKZF3 (Homo sapiens, UniProt Q96SW2+Q9UKT9); assay: Western-blot assay, substrate protein degradation in hPBMCs: IKZF3
T4 construct: effects of the compounds of the present disclosure on the expression of target proteins in cells; endogenous in cells; host or cells: human PBMCs (hPBMCs)
T4 sequence (Q9UKT9 whole entry): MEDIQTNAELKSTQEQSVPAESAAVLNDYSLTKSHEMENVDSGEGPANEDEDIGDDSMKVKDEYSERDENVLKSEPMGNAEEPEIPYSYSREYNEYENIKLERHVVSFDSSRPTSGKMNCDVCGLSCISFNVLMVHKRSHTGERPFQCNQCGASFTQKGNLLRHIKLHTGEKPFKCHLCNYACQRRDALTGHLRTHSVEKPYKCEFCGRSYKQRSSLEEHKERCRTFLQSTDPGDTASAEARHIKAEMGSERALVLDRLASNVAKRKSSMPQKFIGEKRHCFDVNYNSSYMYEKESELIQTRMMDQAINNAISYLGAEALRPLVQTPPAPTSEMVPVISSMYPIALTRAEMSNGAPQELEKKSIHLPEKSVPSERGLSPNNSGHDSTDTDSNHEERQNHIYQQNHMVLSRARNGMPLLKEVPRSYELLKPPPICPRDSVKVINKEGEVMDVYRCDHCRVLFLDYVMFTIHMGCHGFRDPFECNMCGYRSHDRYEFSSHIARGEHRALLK
T4 sequence (Q96SW2 whole entry): as the sequence (Q96SW2 whole entry) above
T4 sequence (Q16531 whole entry partner): as the sequence (Q16531 whole entry partner) above
Description: as §1, §2, §3, §4, §5

CK1α = molecular target: T5, CK1α (Homo sapiens, UniProt P48729+Q96SW2); assay: Western-blot assay, substrate protein degradation in hPBMCs: CK1α
T5 construct: effects of the compounds of the present disclosure on the expression of target proteins in cells; endogenous in cells; host or cells: human PBMCs (hPBMCs)
T5 sequence (P48729 whole entry): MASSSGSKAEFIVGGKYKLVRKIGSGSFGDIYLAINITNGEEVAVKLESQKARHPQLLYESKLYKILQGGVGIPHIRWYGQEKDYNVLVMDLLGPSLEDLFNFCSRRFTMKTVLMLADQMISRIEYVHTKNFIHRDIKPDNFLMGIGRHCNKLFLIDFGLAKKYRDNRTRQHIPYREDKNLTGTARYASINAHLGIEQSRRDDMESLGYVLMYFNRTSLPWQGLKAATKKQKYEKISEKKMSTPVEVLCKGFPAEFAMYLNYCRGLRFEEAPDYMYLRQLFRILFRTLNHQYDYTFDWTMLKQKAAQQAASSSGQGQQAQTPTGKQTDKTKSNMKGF
T5 sequence (Q96SW2 whole entry): as the sequence (Q96SW2 whole entry) above
T5 sequence (Q16531 whole entry partner): as the sequence (Q16531 whole entry partner) above
Description: as §1, §2, §3, §4, §5

GSPT1 = molecular target: T6, GSPT1 (Homo sapiens, UniProt P15170+Q96SW2); assay: Western-blot assay, substrate protein degradation in hPBMCs: GSPT1
T6 construct: effects of the compounds of the present disclosure on the expression of target proteins in cells; endogenous in cells; host or cells: human PBMCs (hPBMCs)
T6 sequence (P15170 whole entry): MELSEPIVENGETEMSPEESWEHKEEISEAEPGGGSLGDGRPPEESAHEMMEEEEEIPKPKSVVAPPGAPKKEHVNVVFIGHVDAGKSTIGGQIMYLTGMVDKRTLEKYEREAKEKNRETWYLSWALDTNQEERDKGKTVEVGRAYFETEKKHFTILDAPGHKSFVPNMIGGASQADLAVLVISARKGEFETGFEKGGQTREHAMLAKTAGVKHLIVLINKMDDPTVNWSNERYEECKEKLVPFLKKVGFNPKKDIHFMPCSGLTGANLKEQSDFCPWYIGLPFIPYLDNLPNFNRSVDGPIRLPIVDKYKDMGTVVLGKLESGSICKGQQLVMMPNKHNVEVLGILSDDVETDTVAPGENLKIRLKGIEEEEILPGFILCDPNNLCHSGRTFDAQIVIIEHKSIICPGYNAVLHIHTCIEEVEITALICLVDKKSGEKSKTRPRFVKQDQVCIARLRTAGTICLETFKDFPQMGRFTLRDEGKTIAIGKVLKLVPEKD
T6 sequence (Q96SW2 whole entry): as the sequence (Q96SW2 whole entry) above
T6 sequence (Q16531 whole entry partner): as the sequence (Q16531 whole entry partner) above
Description: as §1, §2, §3, §4, §5

O=C1CCN(N2Cc3cc(CN4CCN(c5nsc6ccccc56)CC4)ccc3C2=O)C(=O)N1 [GT-04865, 1-(5-((4-(benzo[d]isothiazol-3-yl)piperazin-1-yl)methyl)-1-oxoisoindolin-2-yl)dihydropyrimidine-2,4(1H,3H)-dione]
WEE1 substrate protein remaining % (WEE1): B ("B" is defined as 80%< substrate protein remaining %≤ 100%) | IKZF1 substrate protein remaining % (IKZF1): A ("A" is defined as 0% ≤ substrate protein remaining % ≤ 80%) | IKZF2 substrate protein remaining % (IKZF2): B ("B" is defined as 80%< substrate protein remaining %≤ 100%) | IKZF3 substrate protein remaining % (IKZF3): B ("B" is defined as 80%< substrate protein remaining %≤ 100%) | CK1α substrate protein remaining % (CK1α): B ("B" is defined as 80%< substrate protein remaining %≤ 100%) | GSPT1 substrate protein remaining % (GSPT1): A ("A" is defined as 0% ≤ substrate protein remaining % ≤ 80%)

O=C1CCN(N2Cc3cc(CN4CCN(C(c5ccccc5)c5ccncc5)CC4)ccc3C2=O)C(=O)N1 (stereo not drawn) [GT-04891, 1-(1-oxo-5-((4-(phenyl(pyridin-4-yl)methyl)piperazin-1-yl)methyl)isoindolin-2-yl)dihydropyrimidine-2,4(1H,3H)-dione]
WEE1 substrate protein remaining % (WEE1): B ("B" is defined as 80%< substrate protein remaining %≤ 100%) | IKZF1 substrate protein remaining % (IKZF1): A ("A" is defined as 0% ≤ substrate protein remaining % ≤ 80%) | IKZF2 substrate protein remaining % (IKZF2): A ("A" is defined as 0% ≤ substrate protein remaining % ≤ 80%) | IKZF3 substrate protein remaining % (IKZF3): B ("B" is defined as 80%< substrate protein remaining %≤ 100%) | CK1α substrate protein remaining % (CK1α): B ("B" is defined as 80%< substrate protein remaining %≤ 100%) | GSPT1 substrate protein remaining % (GSPT1): A ("A" is defined as 0% ≤ substrate protein remaining % ≤ 80%)

O=C1CCN(N2Cc3cc(CN4CCN(C(c5ccc(Cl)cc5)c5ccc(Cl)cc5)CC4)ccc3C2=O)C(=O)N1 [GT-04895, 1-(5-((4-(bis(4-chlorophenyl)methyl)piperazin-1-yl)methyl)-1-oxoisoindolin-2-yl)dihydropyrimidine-2,4(1H,3H)-dione]
WEE1 substrate protein remaining % (WEE1): B ("B" is defined as 80%< substrate protein remaining %≤ 100%) | IKZF1 substrate protein remaining % (IKZF1): A ("A" is defined as 0% ≤ substrate protein remaining % ≤ 80%) | IKZF2 substrate protein remaining % (IKZF2): A ("A" is defined as 0% ≤ substrate protein remaining % ≤ 80%) | IKZF3 substrate protein remaining % (IKZF3): B ("B" is defined as 80%< substrate protein remaining %≤ 100%) | CK1α substrate protein remaining % (CK1α): B ("B" is defined as 80%< substrate protein remaining %≤ 100%) | GSPT1 substrate protein remaining % (GSPT1): A ("A" is defined as 0% ≤ substrate protein remaining % ≤ 80%)

O=C1CCN(N2Cc3cc(CN4C[C@@H]5C[C@H]4CN5C(c4ccccc4)c4ccccc4)ccc3C2=O)C(=O)N1 [GT-04938, 1-(5-(((1S,4S)-5-benzhydryl-2,5-diazabicyclo[2.2.1]heptan-2-yl)methyl)-1-oxoisoindolin-2-yl)dihydropyrimidine-2,4(1H,3H)-dione]
WEE1 substrate protein remaining % (WEE1): A ("A" is defined as 0% ≤ substrate protein remaining % ≤ 80%) | IKZF1 substrate protein remaining % (IKZF1): B ("B" is defined as 80%< substrate protein remaining %≤ 100%) | IKZF2 substrate protein remaining % (IKZF2): A ("A" is defined as 0% ≤ substrate protein remaining % ≤ 80%) | IKZF3 substrate protein remaining % (IKZF3): B ("B" is defined as 80%< substrate protein remaining %≤ 100%) | CK1α substrate protein remaining % (CK1α): B ("B" is defined as 80%< substrate protein remaining %≤ 100%) | GSPT1 substrate protein remaining % (GSPT1): A ("A" is defined as 0% ≤ substrate protein remaining % ≤ 80%)

Cc1ccc(N2CCN(Cc3ccc4c(c3)CN(N3CCC(=O)NC3=O)C4=O)CC2)s1 [GT-05083, 1-(5-((4-(5-methylthiophen-2-yl)piperazin-1-yl)methyl)-1-oxoisoindolin-2-yl)dihydropyrimidine-2,4(1H,3H)-dione]
WEE1 substrate protein remaining % (WEE1): B ("B" is defined as 80%< substrate protein remaining %≤ 100%) | IKZF1 substrate protein remaining % (IKZF1): B ("B" is defined as 80%< substrate protein remaining %≤ 100%) | IKZF2 substrate protein remaining % (IKZF2): A ("A" is defined as 0% ≤ substrate protein remaining % ≤ 80%) | IKZF3 substrate protein remaining % (IKZF3): B ("B" is defined as 80%< substrate protein remaining %≤ 100%) | CK1α substrate protein remaining % (CK1α): B ("B" is defined as 80%< substrate protein remaining %≤ 100%) | GSPT1 substrate protein remaining % (GSPT1): B ("B" is defined as 80%< substrate protein remaining %≤ 100%)

Cc1ccsc1N1CCN(Cc2ccc3c(c2)CN(N2CCC(=O)NC2=O)C3=O)CC1 [GT-05084, 1-(5-((4-(3-methylthiophen-2-yl)piperazin-1-yl)methyl)-1-oxoisoindolin-2-yl)dihydropyrimidine-2,4(1H,3H)-dione]
WEE1 substrate protein remaining % (WEE1): B ("B" is defined as 80%< substrate protein remaining %≤ 100%) | IKZF1 substrate protein remaining % (IKZF1): B ("B" is defined as 80%< substrate protein remaining %≤ 100%) | IKZF2 substrate protein remaining % (IKZF2): A ("A" is defined as 0% ≤ substrate protein remaining % ≤ 80%) | IKZF3 substrate protein remaining % (IKZF3): B ("B" is defined as 80%< substrate protein remaining %≤ 100%) | CK1α substrate protein remaining % (CK1α): B ("B" is defined as 80%< substrate protein remaining %≤ 100%) | GSPT1 substrate protein remaining % (GSPT1): B ("B" is defined as 80%< substrate protein remaining %≤ 100%)

Cc1cc(N2CCN(Cc3ccc4c(c3)CN(N3CCC(=O)NC3=O)C4=O)CC2)cs1 [GT-05087, 1-(5-((4-(5-methylthiophen-3-yl)piperazin-1-yl)methyl)-1-oxoisoindolin-2-yl)dihydropyrimidine-2,4(1H,3H)-dione]
WEE1 substrate protein remaining % (WEE1): B ("B" is defined as 80%< substrate protein remaining %≤ 100%) | IKZF1 substrate protein remaining % (IKZF1): B ("B" is defined as 80%< substrate protein remaining %≤ 100%) | IKZF2 substrate protein remaining % (IKZF2): B ("B" is defined as 80%< substrate protein remaining %≤ 100%) | IKZF3 substrate protein remaining % (IKZF3): B ("B" is defined as 80%< substrate protein remaining %≤ 100%) | CK1α substrate protein remaining % (CK1α): B ("B" is defined as 80%< substrate protein remaining %≤ 100%) | GSPT1 substrate protein remaining % (GSPT1): A ("A" is defined as 0% ≤ substrate protein remaining % ≤ 80%)

Cc1cccc(N2CCN(Cc3ccc4c(c3)CN(N3CCC(=O)NC3=O)C4=O)CC2)n1 [GT-05125, 1-(5-((4-(6-methylpyridin-2-yl)piperazin-1-yl)methyl)-1-oxoisoindolin-2-yl)dihydropyrimidine-2,4(1H,3H)-dione]
WEE1 substrate protein remaining % (WEE1): A ("A" is defined as 0% ≤ substrate protein remaining % ≤ 80%) | IKZF1 substrate protein remaining % (IKZF1): A ("A" is defined as 0% ≤ substrate protein remaining % ≤ 80%) | IKZF2 substrate protein remaining % (IKZF2): B ("B" is defined as 80%< substrate protein remaining %≤ 100%) | IKZF3 substrate protein remaining % (IKZF3): A ("A" is defined as 0% ≤ substrate protein remaining % ≤ 80%) | CK1α substrate protein remaining % (CK1α): A ("A" is defined as 0% ≤ substrate protein remaining % ≤ 80%) | GSPT1 substrate protein remaining % (GSPT1): A ("A" is defined as 0% ≤ substrate protein remaining % ≤ 80%)

O=C1CCN(N2Cc3cc(CN4CCN(c5cc(Cl)ccn5)CC4)ccc3C2=O)C(=O)N1 [GT-05128, 1-(5-((4-(4-chloropyridin-2-yl)piperazin-1-yl)methyl)-1-oxoisoindolin-2-yl)dihydropyrimidine-2,4(1H,3H)-dione]
WEE1 substrate protein remaining % (WEE1): A ("A" is defined as 0% ≤ substrate protein remaining % ≤ 80%) | IKZF1 substrate protein remaining % (IKZF1): A ("A" is defined as 0% ≤ substrate protein remaining % ≤ 80%) | IKZF2 substrate protein remaining % (IKZF2): A ("A" is defined as 0% ≤ substrate protein remaining % ≤ 80%) | IKZF3 substrate protein remaining % (IKZF3): A ("A" is defined as 0% ≤ substrate protein remaining % ≤ 80%) | CK1α substrate protein remaining % (CK1α): A ("A" is defined as 0% ≤ substrate protein remaining % ≤ 80%) | GSPT1 substrate protein remaining % (GSPT1): A ("A" is defined as 0% ≤ substrate protein remaining % ≤ 80%)
